# Where a name gives a salt, the structure may show the parent alone.
# Biological target: catalytic domain of human PARP14 (Homo sapiens (Human), UniProt Q460N5)
# Test: Enzymatic assay for inhibition of PARP14 (DELFIA, auto-modification with biotin-NAD)
# Type: biochemical
# Settings: auto-modification of PARP14 by biotin-NAD, 50 nM PARP14, 3 μM biotin-NAD
# Procedure, shortened: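 DELFIA auto-modification read-out: europium-streptavidin bound to biotin-NAD incorporated onto nickel-captured His-TEV PARP14 catalytic domain. Compound preincubated 30 min, then 50 nM enzyme with 3 μM biotin-NAD reacted 3 h, all at 25 °C, pH 8, then NAD quench. Percent inhibition normalized to rucaparib/DMSO wells, fitted (4- or 3-parameter) for IC50.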
# Chain of catalytic domain of human PARP14 (Q460N5 1611-1801): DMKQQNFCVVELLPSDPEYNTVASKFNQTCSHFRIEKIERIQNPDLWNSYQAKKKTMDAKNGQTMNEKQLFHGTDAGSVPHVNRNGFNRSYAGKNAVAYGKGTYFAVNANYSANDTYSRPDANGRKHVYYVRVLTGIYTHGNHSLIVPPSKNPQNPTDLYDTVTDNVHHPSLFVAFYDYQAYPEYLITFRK
row,SMILES,IC50 [µM]
1,"O=c1[nH]c(CSC2CCOCC2)nc2cc(NC3CCOCC3)c(F)cc12 [Example 245, 6-Fluoro-7-((tetrahydro-2H-pyran-4-yl)amino)-2-(((tetrahydro-2H-pyran-4-yl)thio)methyl)quinazolin-4(3H)-one]",1 to 10
2,"CN(C)c1ccc2c(=O)[nH]c(CSC3CCOCC3)nc2c1 [Example 109, 7-(Dimethylamino)-2-(((tetrahydro-2H-pyran-4-yl)thio)methyl)quinazolin-4(3H)-one]",1 to 10
3,"O=c1[nH]c(CSC2CCOCC2)nc2cc(Nc3cncnc3)ccc12 [Example 87, 7-(Pyrimidin-5-ylamino)-2-(((tetrahydro-2H-pyran-4-yl)thio)methyl)quinazolin-4(3H)-one]",1 to 10
4,"O=c1[nH]c(CSC2CCOCC2)nc2cc(F)ccc12 [Example 30, 7-Fluoro-2-(((tetrahydro-2H-pyran-4-yl)thio)methyl)quinazolin-4(3H)-one]",1 to 10
5,CN1CC[C@H](CNc2cc3nc(CSC4CCOCC4)[nH]c(=O)c3c(F)c2F)[C@H](F)C1 (relative stereo) [Example 408],1 to 10
6,"O=C(Nc1ccccc1)c1ccc2c(=O)[nH]c(CSC3CCOCC3)nc2c1 [Example 78, 4-Oxo-N-phenyl-2-(((tetrahydro-2H-pyran-4-yl)thio)methyl)-3,4-dihydro Quinazoline-7-carboxamide]",> 10
7,"O=c1[nH]c(CSC2CCNCC2)nc2cc(NC3CCCC3)cc(F)c12 [Example 176, 7-(Cyclopentylamino)-5-fluoro-2-((piperidin-4-ylthio)methyl)quinazolin-4(3H)-one Hydrochloride]",< 1
8,"O=c1[nH]c(CSC2CCOCC2)nc2cc(Nc3cnccn3)ccc12 [Example 85, 7-(Pyrazin-2-ylamino)-2-(((tetrahydro-2H-pyran-4-yl)thio)methyl)quinazolin-4(3H)-one]",1 to 10
9,"Cc1nccc2c(=O)[nH]c(CSC3CCOCC3)nc12 [Example 42, 8-Methyl-2-(((tetrahydro-2H-pyran-4-yl)thio)methyl)pyrido[3,4-d]pyrimidin-4(3H)-one]",> 10
10,"Cc1cccc2c(=O)[nH]c(CS[C@H]3CC[C@H](N)CC3)nc12 [Example 49, 2-(((trans-4-Aminocyclohexyl)thio)methyl)-8-methylquinazolin-4(3H)-one Hydrochloride]",1 to 10
11,Cc1ccc2nc(CSC3CCOCC3)[nH]c(=O)c2c1 [Example 3],1 to 10
12,"Cc1cc(OCC2CCC2)cc2nc(CSC3CCOCC3)[nH]c(=O)c12 [Example 237, 7-(Cyclobutylmethoxy)-5-methyl-2-(((tetrahydro-2H-pyran-4-yl)thio)methyl)quinazolin-4(3H)-one]",< 1
13,"O=c1[nH]c(CSC2CCOCC2)nc2cc(NC3CCCN(Cc4ccccc4)C3)ccc12 (stereo not shown) [Example 126, 7-[(1-Benzyl-3-piperidyl)amino]-2-(tetrahydropyran-4-ylsulfanylmethyl)-3H-quinazolin-4-one]",1 to 10
14,"CN1CCN(c2ccc3c(=O)[nH]c(CSC4CCOCC4)nc3c2)CC1 [Example 112, 7-(4-Methylpiperazin-1-yl)-2-(((tetrahydro-2H-pyran-4-yl)thio)methyl)quinazolin-4(3H)-one]",1 to 10
15,"C[C@]1(O)CC[C@H](SCc2nc3cc(OCC4CCOCC4)cc(F)c3c(=O)[nH]2)CC1 [Example 332, 5-Fluoro-2-((((cis)-4-hydroxy-4-methylcyclohexyl)thio)methyl)-7-((tetrahydro-2H-pyran-4-yl)methoxy)quinazolin-4(3H)-one]",< 1
16,"Cc1cccc2c(=O)[nH]c(CSC3CCN(Cc4ccc5c(c4)OCCN5C)CC3)nc12 [Example 158, 8-Methyl-2-(((1-((4-methyl-3,4-dihydro-2H-benzo[b][1,4]oxazin-7-yl)methyl)piperidin-4-yl)thio)methyl)quinazolin-4(3H)-one trifluoroacetate]",1 to 10
17,Cc1cccc2c(=O)[nH]c(C(C)SC3CCOCC3)nc12 (stereo not shown) [Example 7],> 10
18,"CS(=O)(=O)N1CC(Nc2ccc3c(=O)[nH]c(CSC4CCOCC4)nc3c2)C1 [Example 195, 7-((1-(methylsulfonyl)azetidin-3-yl)amino)-2-(((tetrahydro-2H-pyran-4-yl)thio)methyl)quinazolin-4(3H)-one]",< 1
19,CN1CC[C@@H](SCc2nc3cc(NC4CCCC4)cc(F)c3c(=O)[nH]2)[C@@H](F)C1 (relative stereo) [Example 413],< 1
20,O=c1[nH]c(CSC2CCOCC2)nc2cc(N[C@@H]3CCCOC3)c(F)c(F)c12 [Example 348],< 1
21,"O=c1[nH]c(CS[C@H]2CC[C@H](O)CC2)nc2cc(OCC3CCCOC3)cc(F)c12 (stereo partly drawn) [Example 318, 5-Fluoro-2-(((trans-4-hydroxycyclohexyl)thio)methyl)-7-((tetrahydro-2H-pyran-3-yl)methoxy)quinazolin-4(3H)-one]",< 1
22,"Cc1cccc2c(=O)[nH]c(CSC3CC(CN)C3)nc12 (stereo not shown) [Example 182, 2-(((3-(aminomethyl)cyclobutyl)thio)methyl)-8-methylquinazolin-4(3H)-one]",1 to 10
23,"Cc1cccc2c(=O)[nH]c(CSC3CCN(C(=O)[C@@H](N)CCCCN)CC3)nc12 [Example 171, 2-(((1-(L-Lysyl)piperidin-4-yl)thio)methyl)-8-methylquinazolin-4(3H)-one Dihydrochloride]",< 1
24,"Cc1cccc2c(=O)[nH]c(CSC3CCN(CCO)CC3)nc12 [Example 162, 2-(((1-(2-Hydroxyethyl)piperidin-4-yl)thio)methyl)-8-methylquinazolin-4(3H)-one]",< 1
25,"O=c1[nH]c(CSC2CCNCC2)nc2cc(NC3CCCCC3)cc(F)c12 [Example 248, 7-(Cyclohexylamino)-5-fluoro-2-((piperidin-4-ylthio)methyl)quinazolin-4(3H)-one]",< 1
26,"Cc1cccc2c(=O)[nH]c(CSC3CCN(Cc4ccc(N(C)C)cc4)CC3)nc12 [Example 140, 2-(((1-(4-(Dimethylamino)benzyl)piperidin-4-yl)thio)methyl)-8-methylquinazolin-4(3H)-one trifluoroacetate]",< 1
27,"O=c1[nH]c(CSC2CCOCC2)nc2cc(NC3CCCC3)cc(CO)c12 [Example 224, 7-(Cyclopentylamino)-5-(hydroxymethyl)-2-(((tetrahydro-2H-pyran-4-yl)thio)methyl)quinazolin-4(3H)-one]",1 to 10
28,"Cc1cccc2c(=O)[nH]c(CSC3CCN(Cc4ccc(C#N)cc4)CC3)nc12 [Example 141, 4-((4-(((8-Methyl-4-oxo-3,4-dihydroquinazolin-2-yl)methyl)thio)piperidin-1-yl)methyl)benzonitrile trifluoroacetate]",1 to 10
29,CC(=O)N[C@H]1C[C@@H](SCc2nc3cc(OCC4CCOCC4)cc(F)c3c(=O)[nH]2)C1 [Example 387],< 1

# The remaining lines, values ahead:
row,IC50 [µM],SMILES
1,< 1,"O=c1[nH]c(CS[C@H]2CC[C@H](O)CC2)nc2cc(OC[C@@H]3CCOC3)cc(F)c12 [Example 325a, 5-Fluoro-2-((((trans)-4-hydroxycyclohexyl)thio)methyl)-7-(((R)-tetrahydrofuran-3-yl)methoxy)quinazolin-4(3H)-one]"
2,< 1,"Cc1cccc2c(=O)[nH]c(CSC3CCN(CCCN)CC3)nc12 [Example 165, 2-(((1-(3-Aminopropyl)piperidin-4-yl)thio)methyl)-8-methylquinazolin-4(3H)-one dihydrochloride]"
3,< 1,"O=c1[nH]c(CSC2CCOCC2)nc2cc(OCC3CC3(F)F)cc(F)c12 (stereo not shown) [Example 315, 7-((2,2-Difluorocyclopropyl)methoxy)-5-fluoro-2-(((tetrahydro-2H-pyran-4-yl)thio)methyl)quinazolin-4(3H)-one]"
4,< 1,"O=c1[nH]c(CS[C@H]2CC[C@H](O)CC2)nc2cc(NC3CCCC3)ccc12 [Example 102, 7-(Cyclopentylamino)-2-(((trans-4-hydroxycyclohexyl)thio)methyl) quinazolin-4(3H)-one]"
5,< 1,"O=c1[nH]c(CSC2CCN(CCC(F)(F)F)CC2)nc2cc(NC3CCCC3)ccc12 [Example 259, 7-(Cyclopentylamino)-2-(((1-(3,3,3-trifluoropropyl)piperidin-4-yl)thio)methyl)quinazolin-4(3H)-one]"
6,< 1,CC(Oc1cc(F)c2c(=O)[nH]c(CSC3CCOCC3)nc2c1)C1CCCC1 (stereo not shown) [Example 394]
7,< 1,"Cc1ccc(F)c2c(=O)[nH]c(CS[C@H]3CC[C@@H](O)CC3)nc12 [Example 58, 5-Fluoro-2-(((cis-4-hydroxycyclohexyl)thio)methyl)-8-methylquinazolin-4(3H)-one]"
8,< 1,"O=c1[nH]c(CSC2CCOCC2)nc2cc(NCCC3CCCC3)ccc12 [Example 252, 7-((2-Cyclopentylethyl)amino)-2-(((tetrahydro-2H-pyran-4-yl)thio)methyl)quinazolin-4(3H)-one]"
9,< 1,CC(=O)N1CCC(COc2cc(F)c3c(=O)[nH]c(CSC4CCOCC4)nc3c2)C1 (stereo not shown) [Example 367]
10,< 1,CN1CC[C@H](SCc2nc3cc(NC4CCCC4)cc(F)c3c(=O)[nH]2)[C@@H](F)C1 (relative stereo) [Example 412]
11,< 1,CN1CCN([C@H]2CC[C@H](Nc3cc4nc(CSC5CCOCC5)[nH]c(=O)c4c(F)c3F)CC2)CC1 [Example 346]
12,< 1,"O=c1[nH]c(CSC2CCOCC2)nc2cc(NC3CCOC3)ccc12 (stereo not shown) [Example 121, 2-(((Tetrahydro-2H-pyran-4-yl)thio)methyl)-7-((tetrahydrofuran-3-yl)amino)quinazolin-4(3H)-one]"
13,< 1,"Cc1cccc2c(=O)[nH]c(CSC3CCN(C(=O)[C@H](N)CCCNC(=N)N)CC3)nc12 [Example 169, (R)-1-(4-Amino-5-(4-(((8-methyl-4-oxo-3,4-dihydroquinazolin-2-yl)methyl)thio)piperidin-1-yl)-5-oxopentyl)guanidine Trihydrochloride]"
14,< 1,CN1CCC(COc2cc(F)c3c(=O)[nH]c(CSC4CCOCC4)nc3c2)C(F)(F)C1 (stereo not shown) [Example 427]
